In series [1] the test system is Strep mutans. The series can be described thus: MIC (minimum inhibitory concentration) with Strep. mutans. The format is cell-based. To be noted: active ingredient alone, water/alcohol/propylene glycol mixture, total bacterial inhibition. The text has this:
Hexetidine is a broad-spectrum, water-insoluble antibacterial, having the chemical formula [drawing 1] 5-amino-1,3-bis(2 ethylhexyl)-5-methyl-hexahydropyrimidine. It has been used as an antibacterial agent in antiplaque and antigingivitis oral compositions as previously discussed. However, hexetidine is a bitter-tasting chemical, thereby limiting its use to low levels in order to minimize its bitter taste, which in turn limits its therapeutic activity.
Table I gives the MIC (minimum inhibitory concentration) results with Strep. mutans.
All the active ingredients (AI) are in water/alcohol/propylene glycol mixtures.
The FIC (Fractional Inhibitory Concentration), has been calculated from the MIC data for each ratio.
A minimum concentration of 0.60 ppm hexetidine alone is needed for total bacterial inhibition, and a minimum concentration of 40 ppm of zinc++ alone is required for total bacterial inhibition; whereas a concentration of 0.12 ppm hexetidine in combination with 0.12 ppm zinc++ effects total bacterial inhibition. This increase in the antibacterial activity of the hexetidine due to the presence of the zinc++ reduces the amount necessary to produce a therapeutic effect, and this minimizes the bitter taste associated with hexetidine.

The conditions of series [2]: cited from earlier work.
The nature of series [3]: Active ingredient stability of dentifrice after aging 9 weeks at 49° C.
Text: The pH of the dentifrice can be adjusted to 5-6 with an appropriate acid such as acetic acid, citric acid, hydrochloric acid, phosphoric acid, etc., if necessary.

Where two headings read alike, the source gives them in different places.

For `CCCCC(CC)CN1CN(CC(CC)CCCC)CC(C)(N)C1` (stereo not shown) [Hexetidine, 5-amino-1,3-bis(2 ethylhexyl)-5-methyl-hexahydropyrimidine], the MIC came out at 0.6 µg/mL in series [1] (Streptococcus mutans, read-out: MIC) and 0.60 ppm in series [1]. For the same molecule, the water solubility result in series [2] was “water-insoluble”. In addition, the “% Available After Aging” value in series [3] (in dentifrices of Examples 1 and 2 (sodium lauryl sulfate), pH 5-6, 90720 min) is reported as 65%; in series [3] (in dentifrices of Examples 3 and 4 (polyoxyethylene (20) sorbitan monoisostearate), pH 5.0-6.0, 90720 min), 92%.
On to Zinc++, for which the MIC in series [1] is 40.00 ppm; in series [1] (listed as zinc++) it was 40 ppm.

The values above are taken from patent US4774078A, “Stable antiplaque dentifrice based on hexetidine, zinc ion and fluoride” (Colgate-Palmolive Company, priority 1986, dated 1988).
